This is an account of results in US8614223B2, “Pyrimidine hydroxy amide compounds as protein deacetylase inhibitors and methods of use thereof” (Acetylon Pharmaceuticals, Inc., priority 2010, dated 2013).

One test deals with HDAC3 (Homo sapiens (Human), UniProt O15379). Kind of test: HDAC enzyme assay, HDAC3. As to conditions: for HDAC3 fold over HDAC6 IC50 (selectivity for HDAC6): ratio HDAC3/HDAC6; for IC50: read-out: HDAC3 IC50.
The target of another test is HDAC2 (Homo sapiens (Human), UniProt Q92769). The test can be described thus: HDAC enzyme assay, HDAC2. As to conditions: for HDAC2 fold over HDAC6 IC50 (selectivity for HDAC6): ratio HDAC2/HDAC6; for IC50: read-out: HDAC2 IC50.
Sequence of HDAC2 (Q92769 whole entry): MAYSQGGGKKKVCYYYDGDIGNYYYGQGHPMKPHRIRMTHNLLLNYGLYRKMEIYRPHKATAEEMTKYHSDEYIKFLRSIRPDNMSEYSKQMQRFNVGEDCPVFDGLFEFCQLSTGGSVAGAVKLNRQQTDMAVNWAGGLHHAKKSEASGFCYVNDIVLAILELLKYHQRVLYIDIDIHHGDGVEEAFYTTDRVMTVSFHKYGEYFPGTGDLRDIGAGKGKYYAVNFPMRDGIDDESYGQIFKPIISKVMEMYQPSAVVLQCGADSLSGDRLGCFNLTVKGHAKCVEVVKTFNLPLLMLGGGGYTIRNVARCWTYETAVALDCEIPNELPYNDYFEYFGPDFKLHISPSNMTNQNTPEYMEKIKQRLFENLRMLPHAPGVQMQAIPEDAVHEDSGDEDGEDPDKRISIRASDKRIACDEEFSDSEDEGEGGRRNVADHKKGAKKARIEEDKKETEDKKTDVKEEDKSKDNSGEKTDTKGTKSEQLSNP
The next test concerns the target HDAC1 (Homo sapiens (Human), UniProt Q13547). The test can be described thus: HDAC enzyme assay, HDAC1. As to conditions: for HDAC1 fold over HDAC6 IC50 (selectivity for HDAC6): ratio HDAC1/HDAC6; for IC50: read-out: HDAC1 IC50.
A further test concerns the target HDAC6 (Homo sapiens (Human), UniProt Q9UBN7). Conditions: read-out: HDAC6 IC50.

Sequence of HDAC1 (Q13547 whole entry): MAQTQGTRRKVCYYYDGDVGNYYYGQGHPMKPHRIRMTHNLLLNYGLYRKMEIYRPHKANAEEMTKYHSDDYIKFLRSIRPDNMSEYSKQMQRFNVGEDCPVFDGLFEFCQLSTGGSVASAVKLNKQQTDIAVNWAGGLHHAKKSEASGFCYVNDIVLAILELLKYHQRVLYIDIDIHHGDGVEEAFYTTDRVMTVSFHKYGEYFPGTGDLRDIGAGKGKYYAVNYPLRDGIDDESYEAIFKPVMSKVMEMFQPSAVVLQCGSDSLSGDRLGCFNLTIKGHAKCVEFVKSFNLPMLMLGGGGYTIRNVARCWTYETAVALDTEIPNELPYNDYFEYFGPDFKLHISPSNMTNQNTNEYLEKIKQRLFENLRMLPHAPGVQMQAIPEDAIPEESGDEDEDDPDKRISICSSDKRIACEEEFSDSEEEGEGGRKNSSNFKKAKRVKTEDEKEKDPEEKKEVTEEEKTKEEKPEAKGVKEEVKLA
Sequence of HDAC6 (Q9UBN7 whole entry): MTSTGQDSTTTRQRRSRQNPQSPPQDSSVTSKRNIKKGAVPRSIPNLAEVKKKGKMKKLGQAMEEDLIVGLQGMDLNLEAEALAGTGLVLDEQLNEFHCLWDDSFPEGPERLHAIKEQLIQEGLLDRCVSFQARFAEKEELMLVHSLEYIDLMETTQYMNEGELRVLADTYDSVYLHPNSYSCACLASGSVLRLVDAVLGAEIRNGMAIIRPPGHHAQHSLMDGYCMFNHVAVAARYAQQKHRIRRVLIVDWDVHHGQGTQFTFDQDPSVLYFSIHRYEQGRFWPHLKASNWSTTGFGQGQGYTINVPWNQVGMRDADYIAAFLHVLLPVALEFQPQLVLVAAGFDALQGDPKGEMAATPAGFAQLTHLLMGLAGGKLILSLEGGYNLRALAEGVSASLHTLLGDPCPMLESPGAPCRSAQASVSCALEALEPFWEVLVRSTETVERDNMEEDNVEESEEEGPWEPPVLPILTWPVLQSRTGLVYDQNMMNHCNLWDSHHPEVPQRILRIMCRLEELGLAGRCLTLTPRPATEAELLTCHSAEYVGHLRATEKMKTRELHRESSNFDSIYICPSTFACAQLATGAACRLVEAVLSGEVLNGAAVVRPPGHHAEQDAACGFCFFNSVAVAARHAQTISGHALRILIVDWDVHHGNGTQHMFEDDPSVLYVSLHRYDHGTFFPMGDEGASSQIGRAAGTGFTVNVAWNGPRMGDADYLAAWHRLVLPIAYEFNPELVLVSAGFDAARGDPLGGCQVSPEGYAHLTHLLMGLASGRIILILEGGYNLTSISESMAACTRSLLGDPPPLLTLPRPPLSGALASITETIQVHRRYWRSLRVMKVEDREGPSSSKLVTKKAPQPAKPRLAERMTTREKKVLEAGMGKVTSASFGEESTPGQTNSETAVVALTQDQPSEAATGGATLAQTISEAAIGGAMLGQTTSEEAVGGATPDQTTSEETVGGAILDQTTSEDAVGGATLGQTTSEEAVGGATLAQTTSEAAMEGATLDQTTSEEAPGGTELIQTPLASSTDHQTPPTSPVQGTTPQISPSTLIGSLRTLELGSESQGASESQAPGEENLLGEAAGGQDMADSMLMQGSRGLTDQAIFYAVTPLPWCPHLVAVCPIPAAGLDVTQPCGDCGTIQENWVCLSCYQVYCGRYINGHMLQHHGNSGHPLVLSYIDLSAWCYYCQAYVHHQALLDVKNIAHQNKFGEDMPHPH
Sequence of HDAC3 (O15379 whole entry): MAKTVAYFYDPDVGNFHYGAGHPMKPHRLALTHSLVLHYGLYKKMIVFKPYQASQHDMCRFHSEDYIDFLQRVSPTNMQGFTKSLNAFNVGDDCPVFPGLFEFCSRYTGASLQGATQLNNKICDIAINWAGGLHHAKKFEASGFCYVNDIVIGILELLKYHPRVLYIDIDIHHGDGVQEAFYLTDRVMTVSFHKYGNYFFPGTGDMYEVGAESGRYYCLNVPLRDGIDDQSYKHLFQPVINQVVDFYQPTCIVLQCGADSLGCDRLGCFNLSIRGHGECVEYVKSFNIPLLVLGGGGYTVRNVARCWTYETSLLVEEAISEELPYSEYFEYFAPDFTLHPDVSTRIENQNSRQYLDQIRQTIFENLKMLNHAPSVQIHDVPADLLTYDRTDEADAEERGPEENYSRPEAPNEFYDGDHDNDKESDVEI
Sequence of HDAC3 (Q9Y618 395-489 partner): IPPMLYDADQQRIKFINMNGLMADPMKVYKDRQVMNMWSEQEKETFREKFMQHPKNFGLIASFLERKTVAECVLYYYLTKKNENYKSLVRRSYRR

With `O=C(NO)c1cnc(Nc2ccc([N+](=O)[O-])c(C(F)(F)F)c2)nc1` [Compound 10], the “HDAC3 fold over HDAC6 IC50 (selectivity for HDAC6)” value on HDAC3 is listed as “(42.6x)”. Also, the 50% inhibitory concentration (IC50) on HDAC3 was 430 nM; at HDAC2, 631 nM; on HDAC1, 329 nM; at HDAC6 it was 10 nM. Further, the “HDAC2 fold over HDAC6 IC50 (selectivity for HDAC6)” value on HDAC2 is recorded as “(62.5x)”. The “HDAC1 fold over HDAC6 IC50 (selectivity for HDAC6)” value at HDAC1 is given as “(32.6x)”.
On to `O=C(NO)c1cnc(Nc2cc(Cl)ccc2Cl)nc1` [Compound 12], for which the “HDAC3 fold over HDAC6 IC50 (selectivity for HDAC6)” value at HDAC3 is “(23.5x)”. Further, the IC50 on HDAC3 amounted to 352 nM; on HDAC2, 453 nM; on HDAC1, 212 nM; on HDAC6 it was 15 nM. Also, the “HDAC2 fold over HDAC6 IC50 (selectivity for HDAC6)” value at HDAC2 was “(30.2x)”. For the same compound, the “HDAC1 fold over HDAC6 IC50 (selectivity for HDAC6)” value on HDAC1 is recorded as “(14.1x)”.
With `O=C(NO)c1cnc(Nc2cc(C(F)(F)F)cc(C(F)(F)F)c2)nc1` [Compound 15], on HDAC3, the “HDAC3 fold over HDAC6 IC50 (selectivity for HDAC6)” value is on record as “(134.3x)” and the IC50 turned out to be 1850 nM. At HDAC2, the “HDAC2 fold over HDAC6 IC50 (selectivity for HDAC6)” value was “(100.8x)” and the IC50 amounted to 1390 nM. For the same compound, at HDAC1, the “HDAC1 fold over HDAC6 IC50 (selectivity for HDAC6)” value is listed as “(102.2x)” and the IC50 was 1410 nM. For the same compound, at HDAC6, the IC50 is 14 nM.
As to `O=C(NO)c1cnc(Nc2c(F)c(F)cc(F)c2F)nc1` [Compound 16], the “HDAC3 fold over HDAC6 IC50 (selectivity for HDAC6)” value on HDAC3 is reported as “(28.3x)”. The IC50 on HDAC3 amounted to 600 nM; on HDAC2 it was 384 nM; at HDAC1 it was 332 nM; on HDAC6 it was 21 nM. Further, the “HDAC2 fold over HDAC6 IC50 (selectivity for HDAC6)” value at HDAC2 is given as “(18.1x)”. The “HDAC1 fold over HDAC6 IC50 (selectivity for HDAC6)” value on HDAC1 is “(15.7x)”.
As for `O=C(NO)c1cnc(Nc2cccc(Cl)c2)nc1` [Compound 17], on HDAC3, the “HDAC3 fold over HDAC6 IC50 (selectivity for HDAC6)” value is on record as “(36.5x)” and the IC50 stood at 198 nM. Also, at HDAC2, the “HDAC2 fold over HDAC6 IC50 (selectivity for HDAC6)” value is recorded as “(29.6x)” and the IC50 was 161 nM. Further, on HDAC1, the “HDAC1 fold over HDAC6 IC50 (selectivity for HDAC6)” value is “(33.5x)” and the IC50 amounted to 182 nM. The IC50 on HDAC6 amounted to 5 nM.
For `O=C(NO)c1cnc(Nc2cc(F)cc(F)c2)nc1` [Compound 18], on HDAC3, the “HDAC3 fold over HDAC6 IC50 (selectivity for HDAC6)” value is reported as “(14.1x)”. Besides, the IC50 on HDAC3 turned out to be 177 nM; at HDAC2 it was 170 nM; at HDAC1, 136 nM; on HDAC6 it was 13 nM. In addition, at HDAC2, the “HDAC2 fold over HDAC6 IC50 (selectivity for HDAC6)” value is listed as 13.5x). The “HDAC1 fold over HDAC6 IC50 (selectivity for HDAC6)” value on HDAC1 is given as “(10.8x)”.
Turning to `Cc1cc(C)cc(Nc2ncc(C(=O)NO)cn2)c1` [Compound 19], on HDAC3, the “HDAC3 fold over HDAC6 IC50 (selectivity for HDAC6)” value was “(88x)” and the IC50 came out at 319 nM. On HDAC2, the “HDAC2 fold over HDAC6 IC50 (selectivity for HDAC6)” value was “(131.7x)” and the half-maximal inhibitory concentration (IC50) worked out at 478 nM. Besides, on HDAC1, the “HDAC1 fold over HDAC6 IC50 (selectivity for HDAC6)” value is “(69.1x)” and the IC50 was determined as 251 nM. The IC50 on HDAC6 was determined as 4 nM.
In the case of `O=C(NO)c1cnc(Nc2c(Cl)cccc2Cl)nc1` [Compound 20], the “HDAC3 fold over HDAC6 IC50 (selectivity for HDAC6)” value on HDAC3 is recorded as “(18.9x)”. In addition, the IC50 at HDAC3 came to 16300 nM; at HDAC2, 17300 nM; on HDAC1, 10600 nM; on HDAC6, 864 nM. For the same compound, on HDAC2, the “HDAC2 fold over HDAC6 IC50 (selectivity for HDAC6)” value was “(20.1x)”. The “HDAC1 fold over HDAC6 IC50 (selectivity for HDAC6)” value on HDAC1 was “(12.3x”.
On to `COc1cc(Nc2ncc(C(=O)NO)cn2)cc(C(F)(F)F)c1` [Compound 21], for which, at HDAC3, the “HDAC3 fold over HDAC6 IC50 (selectivity for HDAC6)” value is on record as “(92.2x)” and the IC50 turned out to be 484 nM. Also, at HDAC2, the “HDAC2 fold over HDAC6 IC50 (selectivity for HDAC6)” value is reported as “(100.3x)” and the IC50 was 526 nM. In addition, at HDAC1, the “HDAC1 fold over HDAC6 IC50 (selectivity for HDAC6)” value was “(46x)” and the half-inhibitory concentration (IC50) was 241 nM. In addition, the concentration for half-maximal inhibition (IC50) on HDAC6 came to 5 nM.
With `O=C(NO)c1cnc(Nc2cccc(C(F)(F)F)c2)nc1` [Compound 22], on HDAC3, the “HDAC3 fold over HDAC6 IC50 (selectivity for HDAC6)” value is given as “(117x)” and the IC50 amounted to 313 nM. At HDAC2, the “HDAC2 fold over HDAC6 IC50 (selectivity for HDAC6)” value was “(166.7x)” and the IC50 worked out at 446 nM. At HDAC1, the “HDAC1 fold over HDAC6 IC50 (selectivity for HDAC6)” value is given as “(83.1x)” and the IC50 amounted to 222 nM. For the same compound, the IC50 on HDAC6 was found to be 3 nM.
In the case of `COc1cc(Nc2ncc(C(=O)NO)cn2)cc(OC)c1` [Compound 23], at HDAC3, the “HDAC3 fold over HDAC6 IC50 (selectivity for HDAC6)” value is on record as “(100.2x)” and the IC50 amounted to 257 nM. Also, on HDAC2, the “HDAC2 fold over HDAC6 IC50 (selectivity for HDAC6)” value is “(134x)” and the IC50 came out at 343 nM. Moreover, on HDAC1, the “HDAC1 fold over HDAC6 IC50 (selectivity for HDAC6)” value was “(60.4x)” and the IC50 stood at 155 nM. Further, at HDAC6, the IC50 is 3 nM.
In the case of `Cc1cc(F)cc(Nc2ncc(C(=O)NO)cn2)c1` [Compound 24], at HDAC3, the “HDAC3 fold over HDAC6 IC50 (selectivity for HDAC6)” value is recorded as “(37.6x)” and the half-maximal inhibitory concentration (IC50) turned out to be 193 nM. Besides, at HDAC2, the “HDAC2 fold over HDAC6 IC50 (selectivity for HDAC6)” value is “(50.9x)” and the IC50 was 261 nM. Moreover, on HDAC1, the “HDAC1 fold over HDAC6 IC50 (selectivity for HDAC6)” value is “(26x)” and the IC50 stood at 133 nM. On HDAC6, the half-maximal inhibitory concentration (IC50) came to 5 nM.
Consider `O=C(NO)c1cnc(Nc2cc(Cl)cc(C(F)(F)F)c2)nc1` [Compound 25], for which, at HDAC3, the “HDAC3 fold over HDAC6 IC50 (selectivity for HDAC6)” value was “(81.9x)” and the IC50 came to 830 nM. Further, at HDAC2, the “HDAC2 fold over HDAC6 IC50 (selectivity for HDAC6)” value is “(92.6x)” and the IC50 amounted to 938 nM. For the same compound, at HDAC1, the “HDAC1 fold over HDAC6 IC50 (selectivity for HDAC6)” value is “(50.9x)” and the IC50 came to 516 nM. For the same compound, on HDAC6, the IC50 turned out to be 10 nM.
Take `O=C(NO)c1cnc(Nc2cc(F)cc(C(F)(F)F)c2)nc1` [Compound 26]: at HDAC3, the “HDAC3 fold over HDAC6 IC50 (selectivity for HDAC6)” value is “(53.4x)” and the IC50 amounted to 270 nM. On HDAC2, the “HDAC2 fold over HDAC6 IC50 (selectivity for HDAC6)” value is “(68.3x)” and the half-inhibitory concentration (IC50) amounted to 345 nM. Besides, at HDAC1, the “HDAC1 fold over HDAC6 IC50 (selectivity for HDAC6)” value was “(31.4x)” and the IC50 is 159 nM. The IC50 on HDAC6 worked out at 5 nM.
For the compound `O=C(NO)c1cnc(Nc2cc(Cl)cc(OC(F)(F)F)c2)nc1` [Compound 27], on HDAC3, the “HDAC3 fold over HDAC6 IC50 (selectivity for HDAC6)” value is on record as “(113.5x)” and the IC50 turned out to be 745 nM. Further, on HDAC2, the “HDAC2 fold over HDAC6 IC50 (selectivity for HDAC6)” value is reported as “(106.6x)” and the IC50 is 700 nM. On HDAC1, the “HDAC1 fold over HDAC6 IC50 (selectivity for HDAC6)” value was “(63.5x)” and the IC50 is 417 nM. Further, the IC50 on HDAC6 is 7 nM.
As for `O=C(NO)c1cnc(Nc2cccc(-c3ccccc3)c2)nc1` [Compound 28], at HDAC3, the “HDAC3 fold over HDAC6 IC50 (selectivity for HDAC6)” value was “(50.1x)” and the half-maximal inhibitory concentration (IC50) came to 181 nM. In addition, at HDAC2, the “HDAC2 fold over HDAC6 IC50 (selectivity for HDAC6)” value is “(51.5x)” and the IC50 stood at 187 nM. Also, on HDAC1, the “HDAC1 fold over HDAC6 IC50 (selectivity for HDAC6)” value is on record as “(30.7x)” and the IC50 amounted to 111 nM. For the same compound, the IC50 at HDAC6 worked out at 4 nM.
As for `O=C(NO)c1cnc(Nc2cccc(N3CCOCC3)c2)nc1` [Compound 29], the “HDAC3 fold over HDAC6 IC50 (selectivity for HDAC6)” value at HDAC3 is given as “(68.2x)”. Besides, the IC50 on HDAC3 was 520 nM; at HDAC2 it was 808 nM; on HDAC1, 464 nM; on HDAC6 it was 8 nM. Besides, the “HDAC2 fold over HDAC6 IC50 (selectivity for HDAC6)” value at HDAC2 is given as “(106x)”. Moreover, the “HDAC1 fold over HDAC6 IC50 (selectivity for HDAC6)” value on HDAC1 was “(60.9x)”.
